In patent publication EP0114387A1, “Bis-guanidine compound salts, their preparation and microbicidal use” (HOECHST AKTIENGESELLSCHAFT, priority 1982, dated 1984):
In brackets after ≈: the same amount, converted by molar mass. Where two headings read alike, the source gives them in different places.

Key:
Assay in all cases: Microbicidal activity, minimum inhibitory concentration to kill 10^6 germs per ml
Assay type in all cases: cell-based
Settings in all cases: room temperature, 10^6 Keime pro ml, read-out: minimale Hemmkonzentration
Aspergillus niger = tested on: Aspergillus niger
Experimental: (§1) Die mikrobiozide Wirkung der erfindungsgemäßen Verbindungen zeigt Tabelle I (µg Wirkstoff/ml Wasser; Kontaktzeit 24 und 48 h; Raumtemperatur). Die angegebenen Zahlen bedeuten die minimalen Hemmkonzentrationen, um die vorgelegte Keimzahl von 10^6 Keimen pro ml abzutöten.

Klebsiella pneumoniae = tested on: Klebsiella pneumoniae
Experimental: as §1

Pseudomonas aeruginosa = tested on: Pseudomonas aeruginosa
Experimental: as §1

[1] = tested on: Desulfovibrio desulfuricans 39
Experimental: as §1

Proteus mirabilis = tested on: Proteus mirabilis
Experimental: as §1

[2] = tested on: Desulfovibrio desulfuricans 85
Experimental: as §1

Candida albicans = tested on: Candida albicans
Experimental: as §1

Staphylococcus aureus = tested on: Staphylococcus aureus
Experimental: as §1

Escherichia coli = tested on: Escherichia coli
Experimental: as §1

CCCCCCCCCCN(CCCNC(=N)N)CCCNC(=N)N [Beispiel 3]
MIC (Aspergillus niger; contact time 24 h): > 1000 µg/mL | MIC (Aspergillus niger; contact time 48 h): > 1000 µg/mL | MIC (Klebsiella pneumoniae; contact time 24 h): 500 µg/mL (≈ 1410 µM) | MIC (Klebsiella pneumoniae; contact time 48 h): 62.5 µg/mL (≈ 176 µM) | MIC (Pseudomonas aeruginosa; contact time 24 h): 500 µg/mL (≈ 1410 µM) | MIC (Pseudomonas aeruginosa; contact time 48 h): 62.5 µg/mL (≈ 176 µM) | MIC ([1]; contact time 24 h): 15.6 µg/mL (≈ 43.9 µM) | MIC ([1]; contact time 48 h): 7.8 µg/mL (≈ 21.9 µM) | MIC (Proteus mirabilis; contact time 24 h): 250 µg/mL (≈ 703 µM) | MIC (Proteus mirabilis; contact time 48 h): 62.5 µg/mL (≈ 176 µM) | MIC ([2]; contact time 24 h): 7.8 µg/mL (≈ 21.9 µM) | MIC ([2]; contact time 48 h): 7.8 µg/mL (≈ 21.9 µM) | MIC (Candida albicans; contact time 24 h): 250 µg/mL (≈ 703 µM) | MIC (Candida albicans; contact time 48 h): 62.5 µg/mL (≈ 176 µM) | MIC (Staphylococcus aureus; contact time 24 h): 250 µg/mL (≈ 703 µM) | MIC (Staphylococcus aureus; contact time 48 h): 62.5 µg/mL (≈ 176 µM) | MIC (Escherichia coli; contact time 24 h): 250 µg/mL (≈ 703 µM) | MIC (Escherichia coli; contact time 48 h): 62.5 µg/mL (≈ 176 µM)
